Test results taken from patent US8017828B2, “Utilization of rare sugars in plant or microorganism” (Shikoku Research Institute Incorporated, priority 2004, dated 2011).

What was measured:
[1] = test system: Aspergillus niger, Cladosporium cladosporioides and Penicillium chrysogenum; assay: Mycelial elongation of filamentous fungi on agar with rare sugar; format: cell-based; settings: 0.05% (w/v) in agar medium, 25° C., 4 days
Procedure: By using as targets, Aspergillus niger, Cladosporium cladosporioides and Penicillium chrysogenum, which are typical filamentous fungi and generally seen in a living environment, an effect of a rare sugar on mycelial elongation was examined.
As the test fungal strains, NBRC 4066 strain, NBRC 4459 strain and NBRC 4626 strain were used.
Each test fungal strain was cultured on a potato dextrose agar medium at 25° C. for 7 days, and one in which the mycelium extended over the surface of the dish was pushed out along with the agar medium in such a manner that the agar medium was in a disc form with a diameter of 1.1 cm, which was placed at the center of a dish filled with an agar medium (1% Bacto agar) supplemented with any of a variety of rare sugars (allitol, D-altrose, L-mannose, L-galactose, D-tagatose, D-sorbose, D-psicose, D-allose, D-glucose and D-fructose) at 0.05% (w/v) and cultured at 25° C. for 4 days. After the cultivation, the length of the mycelium extending on the surface of the culture medium was measured. Two culture media were prepared for each test plot, and the mycelial length represents the average thereof.

Salsola komarovii = assay: Seed germination, short-time and continuous treatment (Experiment 2); format: in vivo; settings: for germination rate: immersed in 1% solution for 24 hours, in the end, DW 28%
Procedure: In order to clarify an effect of a short-time treatment, 50 seeds of Salsola komarovii, tomato (Home Momotaro) and sunny lettuce (Red Wave), and 20 seeds of morning glory (Tairin Zaki Kongo) were immersed in any of deionized water, 1% D-psicose, 1% D-allose and 1% L-galactose for 24 hours (25° C., dark), respectively, then, they were lightly washed with deionized water. Then, the seeds were sown in a dish with a diameter of 9 cm having a filter paper placed therein, and germinated under the same condition by poring 5 to 10 ml of deionized water therein. Further, for the comparison, a continuous treatment with 1% D-psicose was carried out in accordance with the same procedure.

[2] = test system: rice plant (variety: Nihonbare); assay: Growth of rice seedlings in hydroponic culture with D-psicose; format: in vivo
[3] = test system: Fusarium oxysporum IFO 31213 strain; assay: Infection of treated tomato seeds on agar with Fusarium oxysporum; format: in vivo, tomato plant (variety: “House Momotaro”)
Procedure: Therefore, by using a tomato plant and a strain of Fusarium oxysporum, which is a typical pathogenic bacterium of tomato, an effect of D-psicose during infection was examined.
To be more specific, seeds of a tomato plant (variety: “House Momotaro”) were subjected to an immersion treatment by immersing them in a D-psicose solution at a concentration of from 0.01% (w/v) to 0.1% (w/v) for 15 minutes while stirring slowly, followed by air-drying on sterile gauze, and then used as treated seeds. At the center of a plastic dish with a diameter of 9 cm filled with 25 ml of 1% (w/v) agar, a mycelial disc (diameter: 1 cm) obtained by pushing out Fusarium oxysporum (IFO 9967 strain and IFO 31213 strain) cultured for 1 week on a potato dextrose agar medium using a cork borer along with the agar medium was placed, and 10 seeds of the above treated seeds were placed equally spaced around the disc. At this time, test plots in which D-psicose was added to the agar medium at a concentration of from 0.01% (w/v) to 0.1% (w/v) were prepared. Then, the dishes were placed at 23° C. under the dark condition for 7 days to 10 days, and observation was carried out with regard to the elongation of shoot, the elongation of root, the shoot development rate, the infection state in root and the like.

[4] = test system: cherry tomato plant “petite”; assay: Hydroponic growth of cherry tomato with 0.05 or 0.5 mM sugar, 40 days; format: in vivo; settings: until 40 days; for stem length, rank among 7 treated plots: 0.05 mM
Procedure: Further, on Dec. 18, 2003, a cherry tomato plant “petite” was transplanted for permanent planting to a hydroponic apparatus, and a total of 7 treated plots in which a plot without addition was added to 6 treated plots with the use of a nutrient solution supplemented with 0.05 mM or 0.5 mM D-psicose, D-fructose or mannitol were prepared. A survey was carried out with regard to the growth until 40 days after the permanent planting. As a result, the stem length was the shortest in the cases of 0.05 mM D-psicose and 0.05 mM D-fructose. Although a significant difference in the stem diameter was not observed among treated plots, however, a tendency was observed that the stem was slightly thinner in the treated plot of any of the sugars at a high concentration. A significant difference in the number of leaves was not observed among treated plots.

[5] = test system: cherry tomato plant “mini carol”; assay: Hydroponic growth of cherry tomato with 0.05 or 0.5 mM sugar, 10 days; format: in vivo
Procedure: Subsequently, a cherry tomato plant “mini carol” was transplanted for permanent planting to a hydroponic apparatus, and a total of 7 treated plots in which a plot without addition (control plot) was added to 6 treated plots with the use of a nutrient solution supplemented with 0.05 mM or 0.5 mM D-psicose, D-fructose or mannitol were prepared. A survey was carried out with regard to the growth at 10 days after the permanent planting. […] The stem diameter was the smallest in the case of 0.5 mM D-psicose. The number of leaves was the smallest in the case of 0.5 mM D-psicose and 0.5 mM mannitol. The root length was the smallest in the case of 0.5 mM psicose.

[6] = test system: strawberry plant (variety: “Sachinoka”); assay: Spraying of sugar solution during soilless culture of strawberry; format: in vivo; settings: 0.2% (w/v) sprayed weekly
Procedure: In the process of cultivation of strawberry, an effect of spraying D-psicose was examined.
A strawberry plant (variety: “Sachinoka”) was used in an experiment. Strawberry seedlings were transplanted for permanent planting to a mixed culture medium of rockwool and peat moss, and then, by using Otsuka A prescription hydroponic nutrient solution, soilless culture was carried out in a glass house. During the cultivation, on a weekly basis, water, a 0.2% (w/v) D-glucose solution or a 0.2% (w/v) D-psicose solution was sprayed onto the whole plant. As for the number of strawberry plants, 17, 19 and 18 plants were used for the groups, respectively, and permanent planting was carried out on Sep. 24, 2004, and spraying was started from Oct. 22, 2004. A survey was carried out with regard to the growth conditions, the yield of fruits, the quality of fruits and the like by Mar. 7, 2005.

[7] = 0.5 mM, hydroponic culture for 10 days
[8] = D-psicose seed 0.01%, medium 0.01%
[9] = D-psicose seed 0.01%, medium non
[10] = D-psicose seed 0.05%, medium 0.05%
[11] = D-psicose seed 0.05%, medium non
[12] = D-psicose seed 0.10%, medium 0.10%
[13] = D-psicose seed 0.10%, medium non
[14] = seeds treated, and seeds treated plus agar medium

In the case of `O=C[C@H](O)[C@H](O)[C@H](O)[C@H](O)CO` [D-allose], the “effect on mycelial elongation” value [1] is reported as “have an effect of inhibiting mycelial elongation” and the germination rate (Salsola komarovii) is reported as 16%.

In the case of `O=C(CO)[C@H](O)[C@H](O)[C@H](O)CO` [D-psicose], the Number of roots ([2]; 0.5 mM) is reported as “no change”, the Number of roots ([2]; 0.5 mM D-psicose, Day 10 after germination, non-treated 7.00 ± 0.6) is reported as 7.00 ± 0.6 roots and the Seed root length ([2]; 0.5 mM D-psicose, Day 10 after germination, non-treated 7.58 ± 0.23) is reported as 5.15 ± 0.26 cm. For the same compound, the Plant length ([2]; 0.5 mM D-psicose, Day 10 after germination, non-treated 12.08 ± 0.21) was 5.29 ± 0.58 cm, the “root length inhibited by” value [2, 7] was 67% and the “seedling length inhibited by” value [2, 7] was 43%. For the same compound, the “Plant length, percentage of the relative value to untreated plot” value ([2]; 7 days (1 week) after transplantation to pot, after 0.5 mM D-psicose) was 52.4%, the Plant length ([2]; 7 days after transplantation to pot, after 0.5 mM D-psicose treatment, untreated 31.4 ± 0.5) was 16.5 ± 2.4 cm and the Plant length ([2]; 14 days after transplantation to pot, after 0.5 mM D-psicose treatment, untreated 44.7 ± 0.1) was 35.3 ± 2.1 cm. For the same compound, the inhibition at 100 µM ([2]; Oryza sativa, 0.1 mM) was 30%, the “time to recover to the size equal to that of the untreated plot after transplanting to soil” value ([2]; after 0.5 mM treatment, raised without D-psicose) was “about 3 weeks” and the “growth relative to the untreated plot” value ([2]; until 0.05 mM (0.005 to 0.05 mM)) was > 98%. The “mycelial elongation of Fusarium oxysporum” value ([3]; D-psicose added to the agar medium) was “inhibited”, the Root length [3, 8] was 4.7 cm and the Shoot length [3, 8] was 4.5 cm. For the same compound, the Root length [3, 9] was 3.9 cm, the Shoot length [3, 9] was 4.7 cm and the Root length [3, 10] was 3.5 cm. It also gave a Shoot length [3, 10] of 4.5 cm, a Root length [3, 11] of 3.8 cm and a Shoot length [3, 11] of 4.2 cm. For the same compound, the Root length [3, 12] was 2.1 cm, the Shoot length [3, 12] was 2.9 cm and the Root length [3, 13] was 3.2 cm. The Shoot length [3, 13] was 3.0 cm, the “browning caused by infection of roots with Fusarium oxysporum” value [3, 14] was “reduction” and the shoot development rate [3, 14] was “improvement”. For the same compound, the “stem length, rank among 7 treated plots” value [4] was “the shortest”, the “underground part weight, rank among 7 treated plots” value ([4]; 0.5 mM) was “the smallest” and the “stem length, rank among 7 treated plots” value ([5]; 0.05 mM) was “the second longest”. For the same compound, the “fresh and dry aerial part weights, rank among 7 treated plots” value ([5]; 0.5 mM) was “the smallest”, the “number of leaves, rank among 7 treated plots” value ([5]; 0.5 mM) was “the smallest” and the “root length, rank among 7 treated plots” value ([5]; 0.5 mM) was “the smallest”. For the same compound, the “stem diameter, rank among 7 treated plots” value ([5]; 0.5 mM) was “the smallest”, the “stem length, rank among 7 treated plots” value ([5]; 0.5 mM) was “the shortest” and the “effect on mycelial elongation” value [1] was “have an effect of inhibiting mycelial elongation”. For the same compound, the “acidity in the fruit” value [6] was “improvement”, the “content of vitamin C in the fruit” value [6] was “improvement” and the flower-bud formation [6] was “promotion”. For the same compound, the “growth and total yield” value [6] was “no significant difference”, the harvesting time [6] was “acceleration” and the germination (Salsola komarovii; continuous treatment with 1%) was “promoted”. For the same compound, the germination rate (Salsola komarovii) was 28%.

`O=C(CO)[C@@H](O)[C@H](O)[C@H](O)CO` [D-fructose, reference compound] was tested, and the “stem length, rank among 7 treated plots” value [4] was “the shortest” and the “stem length, rank among 7 treated plots” value ([5]; 0.5 mM) was “the longest”.
